# Values of other authors as cited in patent publication US20130274331A1, “Method for Treating Hyperuricemia in Patients with Gout Using Halofenate or Halofenic Acid and an Anti-Inflammatory Agent” (Metabolex, Inc., priority 2012, published 2013).
# Settings: gout patients; monotherapy at 40, 80, 120, 160 and 240 mg/day
smiles,measurement,value
"O=c1[nH]cnc2c(CN3C[C@H](CO)[C@@H](O)C3)c[nH]c12 [BCX4208, 7-(((3R,4R)-3-hydroxy-4-(hydroxymethyl)pyrrolidin-1-yl)methyl)-3H-pyrrolo[3,2-d]pyrimidin-4(5H)-one]",reduction of serum uric acid,rapidly and significantly reduced serum uric acid
